Paper PMC9609070 (ACS Omega, 2022)
Read-outs that look alike come from different tables or passages of the source.

Key:
Solid-phase analyses = assay type: physicochemical; conditions: after saturation in neat water, x1=0.50 mixture and neat NMP
[1] = Apparent thermodynamic functions of dissolution; assay type: physicochemical; conditions: Thm=303.0 K
[2] = Apparent thermodynamic functions of mixing; assay type: physicochemical; conditions: Thm=303.0 K
[3] = calculated by Fedors' groups contribution method; cited from earlier work
[4] = cited from earlier work
[5] = neat water, x1=0.000, cited from earlier work

- TΔsolnS° ([1]; NMP+water, x1=0.100): 0.52 kJ·mol^–1
- ΔsolnG° (apparent Gibbs energy of dissolution) ([1]; NMP+water, x1=0.100): 27.40 kJ·mol^–1
- ΔsolnH° (apparent enthalpy of dissolution) ([1]; NMP+water, x1=0.100): 27.92 kJ·mol^–1
- ΔsolnS° (apparent entropy of dissolution) ([1]; NMP+water, x1=0.100): 1.71 J·mol^–1·K^–1
- TΔsolnS° ([1]; NMP+water, x1=0.200): 2.55 kJ·mol^–1
- ΔsolnG° (apparent Gibbs energy of dissolution) ([1]; NMP+water, x1=0.200): 22.34 kJ·mol^–1
- ΔsolnH° (apparent enthalpy of dissolution) ([1]; NMP+water, x1=0.200): 24.89 kJ·mol^–1
- ΔsolnS° (apparent entropy of dissolution) ([1]; NMP+water, x1=0.200): 8.41 J·mol^–1·K^–1
- TΔsolnS° ([1]; NMP+water, x1=0.300): 3.08 kJ·mol^–1
- ΔsolnG° (apparent Gibbs energy of dissolution) ([1]; NMP+water, x1=0.300): 18.38 kJ·mol^–1
- ΔsolnH° (apparent enthalpy of dissolution) ([1]; NMP+water, x1=0.300): 21.46 kJ·mol^–1
- ΔsolnS° (apparent entropy of dissolution) ([1]; NMP+water, x1=0.300): 10.18 J·mol^–1·K^–1
- TΔsolnS° ([1]; NMP+water, x1=0.400): 2.09 kJ·mol^–1
- ΔsolnG° (apparent Gibbs energy of dissolution) ([1]; NMP+water, x1=0.400): 15.31 kJ·mol^–1
- ΔsolnH° (apparent enthalpy of dissolution) ([1]; NMP+water, x1=0.400): 17.40 kJ·mol^–1
- ΔsolnS° (apparent entropy of dissolution) ([1]; NMP+water, x1=0.400): 6.89 J·mol^–1·K^–1
- TΔsolnS° ([1]; NMP+water, x1=0.500): 1.77 kJ·mol^–1
- ΔsolnG° (apparent Gibbs energy of dissolution) ([1]; NMP+water, x1=0.500): 13.00 kJ·mol^–1
- ΔsolnH° (apparent enthalpy of dissolution) ([1]; NMP+water, x1=0.500): 14.78 kJ·mol^–1
- ΔsolnS° (apparent entropy of dissolution) ([1]; NMP+water, x1=0.500): 5.85 J·mol^–1·K^–1
- TΔsolnS° ([1]; NMP+water, x1=0.600): 6.45 kJ·mol^–1
- ΔsolnG° (apparent Gibbs energy of dissolution) ([1]; NMP+water, x1=0.600): 11.42 kJ·mol^–1
- ΔsolnH° (apparent enthalpy of dissolution) ([1]; NMP+water, x1=0.600): 17.87 kJ·mol^–1
- ΔsolnS° (apparent entropy of dissolution) ([1]; NMP+water, x1=0.600): 21.28 J·mol^–1·K^–1
- TΔsolnS° ([1]; NMP+water, x1=0.700): 15.75 kJ·mol^–1
- ΔsolnG° (apparent Gibbs energy of dissolution) ([1]; NMP+water, x1=0.700): 10.45 kJ·mol^–1
- ΔsolnH° (apparent enthalpy of dissolution) ([1]; NMP+water, x1=0.700): 26.20 kJ·mol^–1
- ΔsolnS° (apparent entropy of dissolution) ([1]; NMP+water, x1=0.700): 51.98 J·mol^–1·K^–1
- TΔsolnS° ([1]; NMP+water, x1=0.800): 14.58 kJ·mol^–1
- ΔsolnG° (apparent Gibbs energy of dissolution) ([1]; NMP+water, x1=0.800): 9.52 kJ·mol^–1
- ΔsolnH° (apparent enthalpy of dissolution) ([1]; NMP+water, x1=0.800): 24.10 kJ·mol^–1
- ΔsolnS° (apparent entropy of dissolution) ([1]; NMP+water, x1=0.800): 48.13 J·mol^–1·K^–1
- TΔsolnS° ([1]; NMP+water, x1=0.900): 10.89 kJ·mol^–1
- ΔsolnG° (apparent Gibbs energy of dissolution) ([1]; NMP+water, x1=0.900): 8.60 kJ·mol^–1
- ΔsolnH° (apparent enthalpy of dissolution) ([1]; NMP+water, x1=0.900): 19.49 kJ·mol^–1
- ΔsolnS° (apparent entropy of dissolution) ([1]; NMP+water, x1=0.900): 35.93 J·mol^–1·K^–1
- TΔsolnS° ([1]; neat NMP, x1=1.000): 13.06 kJ·mol^–1
- ΔsolnG° (apparent Gibbs energy of dissolution) ([1]; neat NMP, x1=1.000): 7.99 kJ·mol^–1
- ΔsolnH° (apparent enthalpy of dissolution) ([1]; neat NMP, x1=1.000): 21.05 kJ·mol^–1
- ΔsolnS° (apparent entropy of dissolution) ([1]; neat NMP, x1=1.000): 43.10 J·mol^–1·K^–1
- ΔmixG° (apparent Gibbs energy of mixing) ([2]; NMP+water, x1=0.100): 13.24 kJ·mol^–1
- ΔmixH° (apparent enthalpy of mixing) ([2]; NMP+water, x1=0.100): 3.14 kJ·mol^–1
- ΔmixS° (apparent entropy of mixing) ([2]; NMP+water, x1=0.100): –33.32 J·mol^–1·K^–1
- ΔmixG° (apparent Gibbs energy of mixing) ([2]; NMP+water, x1=0.200): 8.18 kJ·mol^–1
- ΔmixH° (apparent enthalpy of mixing) ([2]; NMP+water, x1=0.200): 0.11 kJ·mol^–1
- ΔmixS° (apparent entropy of mixing) ([2]; NMP+water, x1=0.200): –26.62 J·mol^–1·K^–1
- ΔmixG° (apparent Gibbs energy of mixing) ([2]; NMP+water, x1=0.300): 4.22 kJ·mol^–1
- ΔmixH° (apparent enthalpy of mixing) ([2]; NMP+water, x1=0.300): –3.31 kJ·mol^–1
- ΔmixS° (apparent entropy of mixing) ([2]; NMP+water, x1=0.300): –24.85 J·mol^–1·K^–1
- ΔmixG° (apparent Gibbs energy of mixing) ([2]; NMP+water, x1=0.400): 1.15 kJ·mol^–1
- ΔmixH° (apparent enthalpy of mixing) ([2]; NMP+water, x1=0.400): –7.38 kJ·mol^–1
- ΔmixS° (apparent entropy of mixing) ([2]; NMP+water, x1=0.400): –28.14 J·mol^–1·K^–1
- ΔmixG° (apparent Gibbs energy of mixing) ([2]; NMP+water, x1=0.500): –1.16 kJ·mol^–1
- ΔmixH° (apparent enthalpy of mixing) ([2]; NMP+water, x1=0.500): –10.00 kJ·mol^–1
- ΔmixS° (apparent entropy of mixing) ([2]; NMP+water, x1=0.500): –29.18 J·mol^–1·K^–1
- ΔmixG° (apparent Gibbs energy of mixing) ([2]; NMP+water, x1=0.600): –2.74 kJ·mol^–1
- ΔmixH° (apparent enthalpy of mixing) ([2]; NMP+water, x1=0.600): –6.91 kJ·mol^–1
- ΔmixS° (apparent entropy of mixing) ([2]; NMP+water, x1=0.600): –13.74 J·mol^–1·K^–1
- ΔmixG° (apparent Gibbs energy of mixing) ([2]; NMP+water, x1=0.700): –3.72 kJ·mol^–1
- ΔmixH° (apparent enthalpy of mixing) ([2]; NMP+water, x1=0.700): 1.42 kJ·mol^–1
- ΔmixS° (apparent entropy of mixing) ([2]; NMP+water, x1=0.700): 16.95 J·mol^–1·K^–1
- ΔmixG° (apparent Gibbs energy of mixing) ([2]; NMP+water, x1=0.800): –4.65 kJ·mol^–1
- ΔmixH° (apparent enthalpy of mixing) ([2]; NMP+water, x1=0.800): –0.68 kJ·mol^–1
- ΔmixS° (apparent entropy of mixing) ([2]; NMP+water, x1=0.800): 13.10 J·mol^–1·K^–1
- ΔmixG° (apparent Gibbs energy of mixing) ([2]; NMP+water, x1=0.900): –5.56 kJ·mol^–1
- ΔmixH° (apparent enthalpy of mixing) ([2]; NMP+water, x1=0.900): –5.29 kJ·mol^–1
- ΔmixS° (apparent entropy of mixing) ([2]; NMP+water, x1=0.900): 0.90 J·mol^–1·K^–1
- ΔmixG° (apparent Gibbs energy of mixing) ([2]; neat NMP, x1=1.000): –6.17 kJ·mol^–1
- ΔmixH° (apparent enthalpy of mixing) ([2]; neat NMP, x1=1.000): –3.73 kJ·mol^–1
- ΔmixS° (apparent entropy of mixing) ([2]; neat NMP, x1=1.000): 8.07 J·mol^–1·K^–1
- ΔmixG° (apparent Gibbs energy of mixing) ([2]; neat water, x1=0.000): 20.19 kJ·mol^–1
- ΔmixH° (apparent enthalpy of mixing) ([2]; neat water, x1=0.000): –17.09 kJ·mol^–1
- ΔmixS° (apparent entropy of mixing) ([2]; neat water, x1=0.000): –123.02 J·mol^–1·K^–1
Structure (SMILES): Cc1cnc(NC(=O)C2=C(O)c3ccccc3S(=O)(=O)N2C)s1 [Meloxicam, 4-hydroxy-2-methyl-N-(5-methyl-2-thiazolyl)-2H-1,2-benzothiazine-3-carboxamide-1,1-dioxide]
- Crystal form after saturation (XRD, FTIR) (Solid-phase analyses): did not suffer crystal polymorphic transitions or solvate formation
- Hildebrand solubility parameter δ3 [3]: 32.1 MPa^1/2
- Ideal mole fraction solubility (x3^id) ([4]; T=293.15 K): 2.607 × 10^–3 mole fraction
- Ideal mole fraction solubility (x3^id) ([4]; T=298.15 K): 3.079 × 10^–3 mole fraction
- Ideal mole fraction solubility (x3^id) ([4]; T=303.15 K): 3.627 × 10^–3 mole fraction
- Ideal mole fraction solubility (x3^id) ([4]; T=308.15 K): 4.260 × 10^–3 mole fraction
- Ideal mole fraction solubility (x3^id) ([4]; T=313.15 K): 4.991 × 10^–3 mole fraction
- TΔsolnS° ([4]; ideal, Thm=303.0 K): 10.61 kJ·mol^–1
- ΔsolnG° (apparent Gibbs energy of dissolution) ([4]; ideal, Thm=303.0 K): 14.16 kJ·mol^–1
- ΔsolnH° (apparent enthalpy of dissolution) ([4]; ideal, Thm=303.0 K): 24.78 kJ·mol^–1
- ΔsolnS° (apparent entropy of dissolution) ([4]; ideal, Thm=303.0 K): 35.03 J·mol^–1·K^–1
- Experimental molar solubility (C) ([5]; T=293.15 K): 6.027 × 10^–5 mol·dm^–3
- Experimental mole fraction solubility (x3) ([5]; T=293.15 K): 1.088 × 10^–6 mole fraction
- Experimental molar solubility (C) ([5]; T=298.15 K): 6.290 × 10^–5 mol·dm^–3
- Experimental mole fraction solubility (x3) ([5]; T=298.15 K): 1.137 × 10^–6 mole fraction
- Experimental molar solubility (C) ([5]; T=303.15 K): 6.557 × 10^–5 mol·dm^–3
- Experimental mole fraction solubility (x3) ([5]; T=303.15 K): 1.187 × 10^–6 mole fraction
- Experimental molar solubility (C) ([5]; T=308.15 K): 6.962 × 10^–5 mol·dm^–3
- Experimental mole fraction solubility (x3) ([5]; T=308.15 K): 1.262 × 10^–6 mole fraction
- Experimental mole fraction solubility (x3) ([5]; T=313.15 K): 1.329 × 10^–6 mole fraction
